Assay results taken from patent publication US20150087677A1, “METHODS FOR TREATING VESTIBULOTOXICTY” (priority 2012, published 2015).

Assays:
[1] = tested on: cisplatin induced vestibulotoxicity; assay: Induced deficits of vestibular behavior after transtympanic cisplatin (vestibular deficit score); type: in vivo, rat; details: for time after the lesion at which protective effects are first observed: effects persist over the following days
Procedure: Vestibular deficit associated behaviors were scored on a scale from 0 to 4, respectively ranging from normal behavior (rating 0) to maximal identified vestibular impairment (rating 4). […] Rats were scored for vestibular deficits after transtympanic injection of cisplatin (50 μl, 2 mg/ml) and, evaluated from 4 to 336 hrs after the injection (FIG. 4). Scores were expressed as mean (±sem). For preventive treatment, injection of cimetidine (i.p., 12 mg/kg) was injected 4 hours before the transtympanic injection of cisplatin. Sham animals received saline (i.p) 4 hours before the lesion. To focus on the preventive action of transtympanic injection of the compounds of the invention in the first 72 hours, ototoxicity is induced by a transtympanic injection (50 μl) of cisplatin (2 mg/ml in saline; 6.7 mM) and a determined ratio of corresponding molar dose of compounds are premixed and injected transtympanically with cisplatin. For example, for the dose ratio 1/2 of compound/cisplatin, a solution of 3.5 mM of compound of interest in addition to the 6.7 mM of cisplatin in saline is prepared and, 50 μl of this mixed saline solution is injected transtympanically at TO. Different control animals are run in parallel: saline only, cisplatin (6.7 mM) only to control the initial lesion, and the compounds of interest alone at different doses in saline to control potential ototoxicity of the compound independently of cisplatin, are with cisplatin. […] For transtympanic experiments, rats were scored for vestibular deficits just before the transtympanic injection, TO and, evaluated at 24, 48 & 72 hours after the injection (FIGS. 5 to 11). Scores were expressed as mean (±sem).

[2] = tested on: vestibular hair cells; type: cell-based, rat; details: co-treatment with cimetidine (1000 μM) and cisplatin for 48 hrs, FIG. 3
Procedure: Vestibular end organs were aseptically removed from animals. Explants composed of sensory and nonsensory epithelia were placed on 5 μl of growth factor-reduced Matrigel on laminin (10 μg/ml)-coated glass coverslips. These preparations were incubated for 30 min at 37° C. in a 95%/5% O2/CO2 atmosphere at saturating moisture. Explants were then cultured in DMEM and F12 (50%/50% v/v) media supplemented with N2 mixture (2%). The medium was renewed every 4 d. […] Treated cultures were then fixed with PAF 4% for 1 hr. Labeling of hair bundles was processed using Alex488-conjugated phalloidin (1:700) overnight. After rinsing with PBS, cultures were mounted in Moviol (Calbiochem). Labelling was observed and image digitalized using an apotome microscope (Zeiss). Hair bundles per utricle were quantified using ImageJ software. Statistical analysis was processed with SigmaPlot software (Systat Software). Final image processing was performed with Adobe Photoshop software.

[3] = transtympanic injection premixed with cisplatin, rats, FIGS. 5 to 11
[4] = transtympanic injection, FIGS. 5 to 11

Row | SMILES | effect on vestibular toxicity and behavioral deficits induced by cisplatin [1, 3] | time after the lesion at which protective effects are first observed [1, 4] | effect on cisplatin-induced vestibular hair cell loss in vitro [2] | effect on vestibular toxicity and behavioral deficits induced by cisplatin ([1]; adult rats, systemic (i.p., 12 mg/kg) pretreatment 4 hrs before transtympanic cisplatin, FIG. 4) | time after the lesion at which protective effects are first observed ([1]; systemic (i.p.) pretreatment t-4 hrs, FIG. 4)
1 | CNC(=C[N+](=O)[O-])NCCSCc1csc(CN(C)C)n1 [nizatidine] | reduces the vestibular toxicity and behavioral deficits | 24 h |  |  | 
2 | CNC(=C[N+](=O)[O-])NCCSCc1ccc(CN(C)C)o1 [ranitidine] |  | 24 h |  |  | 
3 | COc1ccnc(C[S+]([O-])c2nc3ccc(OC(F)F)cc3[nH]2)c1OC (stereo not shown) [pantoprazole] |  | 24 h |  |  | 
4 | CN/C(=N/CCSCc1nc[nH]c1C)NC#N [cimetidine] | reduces the vestibular toxicity and behavioral deficits | 24 h | reduces vestibular hair cell loss | reduces the vestibular toxicity and behavioral deficits | 48 h
5 | COCCCOc1ccnc(C[S+]([O-])c2nc3ccccc3[nH]2)c1C (stereo not shown) [rabeprazole] |  | 24 h |  |  | 
6 | COc1ccc2[nH]c([S+]([O-])Cc3ncc(C)c(OC)c3C)nc2c1 (stereo not shown) [omeprazole] |  | 24 h |  |  | 
7 | Cc1c(OCC(F)(F)F)ccnc1C[S+]([O-])c1nc2ccccc2[nH]1 (stereo not shown) [lansoprazole] | reduces the vestibular toxicity and behavioral deficits | 24 h |  |  | 
